From publication PMC5542402 (Combinatorial chemistry & high throughput screening, 2016)

Biological target: PhoP (Mycobacterium tuberculosis, UniProt P71814)
Format: binding

SMILES: [N-]=[N+]=Nc1ccc(C(=O)CSC[C@H](NC(=O)CC[C@H](N)C(=O)O)C(=O)NCC(=O)O)cc1 [NCGC00093547]
- Kd: 12.6 µM
